Test results reported in US5212202A, “Therapeutic cholesterol gallstone dissolution method” (priority 1992, dated 1993).
Read-outs that look alike come from different tables or passages of the source.

Columns and labels:
[1] = cited from earlier work
[2] = in words; cited from earlier work
[3] = in words; cited from earlier work; remark: listed apart in the source
[4] = in vitro dissolution of matched cholesterol gallstones from cholecystectomy patients, 30 ml polyethylene bag model gallbladder, 180 ml/min (Table II); parameters: species or system human; settings: five stones per set; for Mean Time (complete dissolution): mean stone weight 79-340 mg, 150 ml solvent
[5] = in vitro dissolution of fresh human cholesterol gallstones in a model gallbladder at high flow rate (Table I); settings: for Dissolution Rate / Dissolution Time: high flow rate; for Dissolution Rate: stone taken as 90% by weight cholesterol; for dissolution of cholesterol gallstones compared with MTBE: in words; for Dissolution Time: total dissolution, one stone of 132-175 mg per solvent
Experimental: Their efficacy and the techniques of the present invention may be seen from the following data. In the tests described in Table I below, fresh human faceted cholesterol gallstones (kept in distilled water) were dissolved in vitro and the times were recorded for the total dissolution, using a model gallbladder at a high flow rate achieved by a metering pump. "High flow rate" as used herein will mean rates of flow in the range which can be anticipated to result in fluid turbulence for the solvent in the region of the biliary tract surrounding the calculi (gallstones). While "high" rates will vary according to solvent type and viscosity and with individual patients, it will be expected that appropriate flow rates will be at least about 20 ml/min, preferably at least about 100 ml/min, and more preferably at least about 150 ml/min. For comparison purposes a parallel test with MTBE is also shown.

[6] = treatment of a human patient with gallstones by solvent perfusion; type: in vivo
Text: Another aspect of the invention is the in vivo dissolution of gallstones using the C5 -C6 ester solvents provided herein as the solvent in a high flow rate pumping system, in particular a continuous pumping system controlled by gallbladder pressure feedback and employing a delivery system consisting of a catheter, a continuous flow pumping system, a controller and a tubing set; see aforesaid U.S. patent application No. 07/482,194, filed Feb. 20, 1990, to S. Zakko, incorporated herein by reference.
Such a pumping system, in combination with the low viscosity solvent provided herein, has the capability of emptying the gallbladder many times faster than the rate of normal gallbladder contraction, to prevent solvent from emptying into the intestine should such a gallbladder contraction occur during perfusion. […]
Further, should the pressure remain above (as may occur with the beginning of a gallbladder contraction) or below the upper and lower pressure limits in excess of empirically determined delays, or above or below the upper and lower pressure alarms, for the associated delays, the controller causes the system to enter into an alarm mode in which both pumps operate in the aspiration direction at maximum flow rate to remove the low viscosity solvent.

[7] = perfusion of the gallbladder of an anesthetized pig, solvent level in central venous blood by gas chromatography
[8] = cited from earlier work; remark: listed apart in the source

## CCOCC [diethyl ether, reference compound]
[1]; in words
  Boiling point relative to body temperature: below body temperature

## CCCCCCCC(=O)OCC(O)CO (stereo not shown) [Monooctanoin, monooctanoin]
[2]
  viscosity: relatively high viscosity
[3]
  gallstone dissolution speed: dissolves gallstones very slowly

## CC(=O)OC(C)C [isopropyl acetate]
[4]
  Overall Rate (dissolution): 5.48 mg/min
  Mean Time (complete dissolution): 26 min
[1]; Table I
  Boiling Point: 89 °C
[5]
  Dissolution Rate: 9 mg/min
  dissolution of cholesterol gallstones compared with MTBE: rate generally comparable to that of MTBE
  Dissolution Time: 14 min

## CCOC(=O)C(C)C [ethyl isobutyrate]
[4]
  Overall Rate (dissolution): 4.55 mg/min
  Mean Time (complete dissolution): 33 min
[1]; Table I
  Boiling Point: 112 °C
[5]
  Dissolution Rate: 8 mg/min
  dissolution of cholesterol gallstones compared with MTBE: rate generally comparable to that of MTBE
  Dissolution Time: 15 min

## CCOC(=O)CC [ethyl propionate]
[6]; human patient
  cholesterol concentration in the solvent during the procedure, versus previous procedures using MTBE: higher than concentrations observed during previous procedures conducted using MTBE
[6]; one human patient
  treatment of a human patient to eliminate cholesterol gallstones: successful treatment
[7]; before, 1 h and 2 h of perfusion, 30 and 60 min after
  blood level of solvent throughout the procedure: below the level of detectability
[4]
  Overall Rate (dissolution): 12.22 mg/min
  Mean Time (complete dissolution): 14 min
[1]; Table I
  Boiling Point: 99 °C
[5]
  Dissolution Rate: 13 mg/min
  dissolution of cholesterol gallstones compared with MTBE: rate generally comparable to that of MTBE
  Dissolution Time: 10 min

## CCCOC(C)=O [n-propyl acetate]
[4]
  Overall Rate (dissolution): 4.45 mg/min
  Mean Time (complete dissolution): 35 min
[1]; Table I
  Boiling Point: 102 °C
[5]
  Dissolution Rate: 14 mg/min
  dissolution of cholesterol gallstones compared with MTBE: rate generally comparable to that of MTBE
  Dissolution Time: 10 min

## COC(C)(C)C [methyl t-butyl ether]
[8]; believed caused by increased blood levels of MTBE
  side effects in patients: nausea and vomiting
[8]; escape from gallbladder into small intestine
  systemic toxicity, pain and intestinal damage on escape into the small intestine: signs of systemic toxicity (sedation), pain and by endoscopy, damage to the epithelium of the small intestine
[8]; in vivo
  effect of entry into the blood stream: hemolysis
[8]; reversible
  renal failure: one
[7]; 10 ml, 2 h gallbladder perfusion, central vein
  blood level of solvent during perfusion: 0.01-0.1 μl/ml
[7]; read-out: blood level of solvent during perfusion, 10 ml, 2 h gallbladder perfusion, central vein
  concentration: 84 to 840 µM
[7]; thirty and sixty minutes following perfusion
  blood level of solvent after perfusion: declined after perfusion
[4]
  Overall Rate (dissolution): 7.69 mg/min
  Mean Time (complete dissolution): 19 min
[1]; Table I
  Boiling Point: 55 °C
[1]
  Boiling Point: 55 °C
[5]
  Dissolution Rate: 20 mg/min
  Dissolution Time: 8 min
